Reference: publication PMC4509728, “Crystal Structures Reveal that the Reaction Mechanism of Imidazoleglycerol-Phosphate Dehydratase Is Controlled by Switching Mn(II) Coordination” (Structure(London, England:1993), 2015)

Molecular target: T1, IGPD2 (construct B) (Arabidopsis thaliana, UniProt O23346, E73Q)
T1 construct: gene HISN5B; construct B, residues 69-272, signal peptide removed and further N-terminal truncation; pET24a, E. coli BL21(DE3); homo 24mer, site formed by three chains
T1 sequence (O23346 69-272 E73Q): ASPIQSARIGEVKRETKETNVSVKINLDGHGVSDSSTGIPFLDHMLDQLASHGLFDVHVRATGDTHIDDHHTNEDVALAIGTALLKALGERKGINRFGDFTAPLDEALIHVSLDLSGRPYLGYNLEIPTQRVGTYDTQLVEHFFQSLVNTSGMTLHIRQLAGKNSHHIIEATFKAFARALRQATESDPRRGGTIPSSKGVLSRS
Test: X-ray crystallography of the co-crystal ([…] Å form A)
Assay type: binding
Settings: inactive mutant, Mn(II), mixed occupancy with 2R3S IGP at the same site

With `O=P(O)(O)OC[C@H](O)[C@@H](O)c1cnc[nH]1` [2S3S diastereoisomer of IGP] the “X-ray crystallography of the co-crystal (1.12 Å form A)” value was “Both diastereoisomers bind at the same site”.
